One assay concerns the target T1, APC (303–739) (Homo sapiens, UniProt P25054).
T1 sequence (P25054 303-739): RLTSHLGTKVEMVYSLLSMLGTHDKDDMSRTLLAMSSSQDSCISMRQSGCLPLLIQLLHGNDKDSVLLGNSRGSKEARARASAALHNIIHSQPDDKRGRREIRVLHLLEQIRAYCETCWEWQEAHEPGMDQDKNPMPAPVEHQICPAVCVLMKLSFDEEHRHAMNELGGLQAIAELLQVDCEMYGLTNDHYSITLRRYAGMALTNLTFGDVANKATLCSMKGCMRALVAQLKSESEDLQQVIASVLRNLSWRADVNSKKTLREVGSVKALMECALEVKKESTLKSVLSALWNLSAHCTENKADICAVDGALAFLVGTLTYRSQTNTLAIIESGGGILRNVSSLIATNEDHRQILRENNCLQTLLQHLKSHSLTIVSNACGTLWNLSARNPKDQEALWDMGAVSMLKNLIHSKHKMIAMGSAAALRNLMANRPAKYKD
Description: FP competitive assay using tracer 7. Type of assay: binding. Conditions: for FP(mp): Tracer 7, replicate wells. The method, then:
(§1) FITC-labeled tracer peptides were obtained from Changzhou Kanglong Biotech Ltd. (Changzhou, Jiangsu, China). […]. The FP signal changes upon tracer binding were measured after 1.5 h of incubation using a Synergy neo microplate reader (BioTek Instruments, Inc.) and plotted against the protein concentration. The corresponding EC50 values were generated by fitting the curves with a nonlinear regression model. […]. To make a working solution, APC (303–739) was diluted in FP buffer (50 mM HEPES, pH 7.5, 300 mM NaCl, 1 mM EDTA, 1 mM DTT). The diluted APC protein (91 μL) was combined with a serial dilution of peptides (4 μL) and incubated at room temperature for 1 h, followed by the addition of 5 μL of 400 nM tracer 7. The FP signals were measured after 1.5 h of incubation at room temperature using a Synergy neo microplate reader. Three controls were included on each plate, i.e., blank (without protein and tracer), 100% inhibition (free tracer only), and 0% inhibition (protein/tracer complex only) controls. All experiments were performed in triplicate. The IC50 values of peptides were calculated by nonlinear regression analysis using GraphPad Prism 7.0 software.

The target of a further assay is T2, APC (Homo sapiens, UniProt P25054).
T2 sequence (P25054 303-739): T1 sequence (P25054 303-739)
In words: FP competitive assay using tracer 1. Type of assay: binding. The settings on record: for FP(mp): Tracer 1, triplicate raw readings. The method, then:
In our previous study, we established an FP assay for screening APC–Asef inhibitors using FITC-labeled tracer 1 (Ac–^176[…][FITC]^195–NH2)[16]. […]. However, their Kd values measured by isothermal titration calorimetry (ITC) actually vary up to more than 20 times[16],[17]. […].
as §1, with “The diluted APC protein (91 μL) was combined with a serial dilution of peptides (4 μL) and incubated at room temperature for 1 h, followed by the addition of 5 μL of 400 nM tracer 7.” left out

Setting [1] is: IC50, Tracer 7, Supplementary Table 4.

The text below walks through data of paper PMC9402538, “Rational design of a sensitivity-enhanced tracer for discovering efficient APC–Asef inhibitors” (Nature Communications, 2022).

Several values for one entry are separate records, joined by “and”; a condition that tells them apart may be missing. Identical values can stand only once. Like-named read-outs stand apart in the source and are kept apart here. Where a SMILES comes first, the peptide text is derived from it. [ ]: non-standard residue; d: D form. The star is where a group is joined. Adamantane1carbonyl = O=C(C12CC3CC(CC(C3)C1)C2)*; Bpa = N[C@@H](Cc1ccc(C(=O)c2ccccc2)cc1)C(=O)O; Thiophene2carbonyl = O=C(c1cccs1)*; Bz = O=C(c1ccccc1)*

The term IC50 denotes the concentration needed to halve the response being measured.

Regarding `CC(C)C[C@H](NC(=O)[C@H](CO)NC(=O)[C@H](CCC(=O)O)NC(=O)CNC(=O)[C@H](C)NC(=O)c1ccccc1)C(=O)N[C@@H](Cc1c[nH]c2ccccc12)C(=O)N[C@@H](CCC(=O)O)C(N)=O` [MAI-452] (Bz-AGESLWE-NH2), the IC50 on APC (303–739) (setting [1]) is 0.17 ± 0.01 µM; on APC, 440 ± 150 nM.
On to `CC(C)C[C@H](NC(=O)[C@H](CO)NC(=O)[C@H](CCC(=O)O)NC(=O)CNC(=O)[C@H](C)NC(=O)c1ccccc1)C(=O)N[C@@H](Cc1ccc(O)cc1)C(=O)N[C@@H](Cc1ccc(C(=O)c2ccccc2)cc1)C(N)=O` [MAI-457] (Bz-AGESLY[Bpa]-NH2), for which the IC50 on APC turned out to be 590 ± 200 nM.
Consider `C[C@H](NC(=O)c1ccccc1)C(=O)NCC(=O)N[C@@H](CCC(=O)O)C(=O)N[C@@H](CO)C(=O)N[C@@H](Cc1ccc(O)cc1)C(=O)N[C@@H](Cc1ccc(O)cc1)C(=O)N[C@@H](CCC(=O)O)C(N)=O` [MAI-458] (Bz-AGESYYE-NH2), for which the IC50 at APC (303–739) (setting [1]) is 0.9 ± 0.03 µM; at APC it was 590 ± 140 nM.
The like results for `CC(C)C[C@H](NC(=O)[C@H](CO)NC(=O)[C@H](CCC(=O)O)NC(=O)CNC(=O)[C@H](C)NC(=O)c1ccccc1)C(=O)N[C@@H](Cc1ccc(O)cc1)C(N)=O` [MAI-463] (Bz-AGESLY-NH2) were, in that order, 1.3 ± 0.05 µM and 730 ± 150 nM.
`CC(C)C[C@H](NC(=O)[C@H](CO)NC(=O)[C@H](CCC(=O)O)NC(=O)CNC(=O)[C@H](C)NC(=O)c1ccccc1)C(=O)N[C@@H](Cc1ccc(O)cc1)C(=O)N[C@H](CCC(=O)O)C(N)=O` [MAI-465] (Bz-AGESLY[dE]-NH2): the half-maximal inhibitory concentration (IC50) on APC was found to be 750 ± 150 nM.
Regarding `CC(C)C[C@H](NC(=O)[C@H](CO)NC(=O)[C@H](CCC(=O)O)NC(=O)CNC(=O)[C@H](C)NC(=O)C12CC3CC(CC(C3)C1)C2)C(=O)N[C@@H](Cc1ccc(O)cc1)C(=O)N[C@@H](CCC(=O)O)C(N)=O` [MAI-505] (Adamantane1carbonyl-AGESLYE-NH2), the IC50 came to 1.57 µM on APC (303–739) (Repeat 1, Table 3 source data, read-out: IC50(μM) Repeat 1); 1.73 µM on APC (303–739) (Repeat 2, Table 3 source data, read-out: IC50(μM) Repeat 2); 1.57 µM at APC (303–739) (Repeat 3, Table 3 source data, read-out: IC50(μM) Repeat 3); 1.62 µM at APC (303–739) (mean of 3 repeats, Table 3 source data, read-out: IC50(μM) mean); 440 ± 120 nM on APC (Supplementary Table 4, read-out: IC50, Tracer 1). Further, the “FP(mp)” value on APC (303–739) (Conc. 0.0061 μM) was 310 mp and 307 mp and 309 mp; on APC (303–739) (Conc. 0.0122 μM) it was 303 mp and 302 mp and 307 mp; on APC (303–739) (Conc. 0.0244 μM), 307 mp and 305 mp and 308 mp; at APC (303–739) (Conc. 0.05 μM) it was 302 mp and 304 mp and 307 mp; on APC (303–739) (Conc. 0.10 μM), 294 mp and 293 mp and 295 mp; on APC (303–739) (Conc. 0.20 μM), 282 mp (2×) and 276 mp. Moreover, the “FP(mp)” value at APC (303–739) (Conc. 0.39 μM) is 256 mp and 254 mp and 252 mp; at APC (303–739) (Conc. 0.78 μM) it was 224 mp and 222 mp and 229 mp; at APC (303–739) (Conc. 1.56 μM) it was 180 mp and 186 mp and 189 mp; on APC (303–739) (Conc. 3.13 μM), 136 mp and 134 mp and 137 mp; at APC (303–739) (Conc. 6.25 μM), 106 mp (2×) and 108 mp; at APC (303–739) (Conc. 12.50 μM) it was 85 mp and 86 mp and 89 mp. In addition, the “FP(mp)” value was 67 mp and 68 mp and 71 mp at APC (303–739) (Conc. 25.00 μM); 57 mp and 60 mp and 59 mp on APC (303–739) (Conc. 50.00 μM); 181 mp on APC (Conc. 0.05 μM); 177 mp and 182 mp and 179 mp on APC (Conc. 0.10 μM); 161 mp and 172 mp and 174 mp on APC (Conc. 0.20 μM); 139 mp and 163 mp and 161 mp on APC (Conc. 0.39 μM). The “FP(mp)” value at APC (Conc. 0.78 μM) was 68 mp and 100 mp and 109 mp; at APC (Conc. 1.56 μM), 56 mp and 64 mp and 68 mp; on APC (Conc. 3.13 μM), 57 mp and 55 mp and 56 mp; at APC (Conc. 6.25 μM), 52 mp and 51 mp; at APC (Conc. 12.50 μM), 51 mp and 49 mp and 50 mp; on APC (Conc. 25.00 μM) it was 47 mp and 50 mp. Also, the “FP(mp)” value was 49 mp and 51 mp at APC (Conc. 50.00 μM); 50 mp and 48 mp on APC (Conc. 100.00 μM); 50 mp and 51 mp on APC (Conc. 200.00 μM); 50 mp and 49 mp on APC (Conc. 400.00 μM).
Turning to `CC(C)C[C@H](NC(=O)[C@H](CO)NC(=O)[C@H](CCC(=O)O)NC(=O)CNC(=O)[C@H](C)NC(=O)c1cccs1)C(=O)N[C@@H](Cc1ccc(O)cc1)C(=O)N[C@@H](CCC(=O)O)C(N)=O` [MAI-507] (Thiophene2carbonyl-AGESLYE-NH2), the IC50 on APC (303–739) (IC50(μM) Repeat 1, Repeat 1, Table 3 source data) came out at 0.173 µM; on APC (303–739) (IC50(μM) Repeat 2, Repeat 2, Table 3 source data), 0.162 µM; at APC (303–739) (IC50(μM) Repeat 3, Repeat 3, Table 3 source data) it was 0.175 µM; at APC (303–739) (IC50(μM) mean, mean of 3 repeats, Table 3 source data), 0.17 µM; on APC (303–739) (IC50 ± SD, tracer 7, APC 25 nM, average of three independent experiments), 0.17 ± 0.007 µM; on APC it was 340 ± 120 nM. The “FP(mp)” value on APC (303–739) (Conc. 0.0061 μM) is 306 mp and 304 mp and 305 mp; on APC (303–739) (Conc. 0.0122 μM), 299 mp and 301 mp (2×); at APC (303–739) (Conc. 0.0244 μM) it was 278 mp and 279 mp and 280 mp; at APC (303–739) (Conc. 0.05 μM), 256 mp (2×) and 257 mp; at APC (303–739) (Conc. 0.10 μM) it was 216 mp and 219 mp (2×); on APC (303–739) (Conc. 0.20 μM) it was 178 mp (2×) and 173 mp. The “FP(mp)” value is 138 mp and 133 mp and 136 mp on APC (303–739) (Conc. 0.39 μM); 107 mp and 99 mp and 101 mp at APC (303–739) (Conc. 0.78 μM); 89 mp and 77 mp and 80 mp at APC (303–739) (Conc. 1.56 μM); 75 mp and 72 mp (2×) on APC (303–739) (Conc. 3.13 μM); 59 mp and 54 mp and 58 mp at APC (303–739) (Conc. 6.25 μM); 60 mp (2×) and 54 mp on APC (303–739) (Conc. 12.50 μM). Further, the “FP(mp)” value on APC (303–739) (Conc. 25.00 μM) was 54 mp and 51 mp and 52 mp; on APC (303–739) (Conc. 50.00 μM) it was 57 mp (2×) and 54 mp; at APC (Conc. 0.05 μM), 180 mp and 182 mp; on APC (Conc. 0.10 μM), 173 mp and 180 mp and 179 mp; on APC (Conc. 0.20 μM) it was 168 mp and 169 mp and 173 mp; on APC (Conc. 0.39 μM), 130 mp and 156 mp and 153 mp. Moreover, the “FP(mp)” value was 56 mp and 61 mp and 98 mp at APC (Conc. 0.78 μM); 53 mp and 54 mp and 52 mp at APC (Conc. 1.56 μM); 53 mp and 50 mp and 52 mp at APC (Conc. 3.13 μM); 50 mp and 51 mp at APC (Conc. 6.25 μM); 50 mp and 47 mp and 48 mp on APC (Conc. 12.50 μM); 51 mp and 47 mp and 48 mp on APC (Conc. 25.00 μM). Besides, the “FP(mp)” value at APC (Conc. 50.00 μM) is 49 mp and 47 mp and 48 mp; on APC (Conc. 100.00 μM) it was 48 mp and 47 mp; at APC (Conc. 200.00 μM) it was 48 mp; at APC (Conc. 400.00 μM), 49 mp and 48 mp.
